In patent US20260001889A1, “COMPOSITIONS USEFUL FOR MODULATING SPLICING” (Skyhawk Therapeutics, Inc., priority 2022, published 2026):
pEC50, pIC50: −log10 of the molar value.

Tests used:
[1] = test system: ATXN3 transcripts containing exon 4; test: ATXN3 Quantitative Splicing Assay (qPCR, E4E5 primers/probe); format: cell-based; conditions: Homo sapiens, SK-N-MC cells, compounds for 24 h
Procedure: Example 34: ATXN3 Quantitative Splicing Assay
Human neuroblastoma SK-N-MC cells were plated in 384-well plates at 20,000 cells/well. Twenty-four hours after plating, cells were treated with compounds for 24 h at appropriate concentrations ranging from 30 μM to 0.6 nM (0.300 DMSO). Treated cells were lysed in 15 μL of lysis buffer, and cDNA was synthesized using the Fast Advanced Cells-to-Ct kit. Two […] of each cDNA was used in qPCR reactions to confirm the exon 4 skipped transcripts of ATXN3. A second set of primers/probe E4E5 was used to detect the transcripts containing exon 4. The third set of primers/probe E8E9 was used to detect total gene level of ATXN3. The qPCR reactions were prepared in 384-well plates in 10 μL volume, using TaqMan™ Fast Advanced Master Mix with primers and probes shown in the table below. Reactions were run in a Quant Studio 6 qPCR instrument with default settings.
The primers and probes are listed below in Table 4.

ATXN3-HiBiT protein = test: ATXN3 Total Protein Assay (Kelly-ATXN3-HiBiT luminescence); format: cell-based; conditions: Kelly-ATXN3-HiBiT cells, 48 h after addition of compound
Excerpt: Example 36: ATXN3 Total Protein Assay
To monitor ATXN3 protein levels by luminescence, a Kelly-ATXN3-HiBiT cell line with homozygous knock-in of HiBiT at the C-terminus of the endogenous ATXN3 gene was used (knock-in of the HiBiT-tag coding sequence SEQ ID NO. 14: 5′[…]3′ into exon 11 of ATXN3-position 1114 of ATXN3 RefSeq NM_004993.6). Manipulations of the Kelly-ATXN3-HiBiT cell line that result in downregulation of the ATXN3-HiBiT protein (through modulation of ATXN3-HiBiT pre-mRNA splicing) can be followed by monitoring the luminescence signal of the HiBiT tag using the Nano Glo HiBiT Lytic Detection System (Promega, #N3050). Kelly-ATXN3-HiBiT cells were maintained in RPMI 1640 w/Glutamax (Gibco, #61870010), 10% FBS (Sigma Aldrich, #F8687), 1% Penicillin/Streptomycin (Gibco, #15140-122) at 37° C., 5% CO2. To assess HiBiT-luminescence signal upon compound treatment, 2000 Kelly-ATXN3-HiBiT cells were seeded per well in 384 plate format. Compounds were added 24 h after seeding. ATXN3-HiBiT-luminescence signal was read out 48 h after addition of the compound using the Nano Glo HiBiT Lytic Detection System (Promega, #N3050) according to the manufacturer's instructions. To control for cell viability, an identically prepared sister plate was read out with the CellTiter-Glo® 2.0 Assay (Promega, #G9243) according to the manufacturer's instructions. Fold changes of ATXN3-HiBiT-luminescence and of CellTiter-Glo viability signals were calculated relative to a DMSO control condition.

Compound	pIC50 [1]	pEC50 (ATXN3-HiBiT protein)
N[C@H]1CCCC[C@H]1c1cc2nc(Cl)cc(NCc3cccs3)c2o1 (racemic) [Compound 363, rac-2-[(1R,2S)-2-aminocyclohexyl]-5-chloro-N-(thiophen-2-ylmethyl)furo[3,2-b]pyridin-7-amine]	5.30 to 6.30	
N[C@H]1CC[C@@H]1c1oc2c(NCc3cccs3)cc(Cl)nc2c1Br (racemic) [Compound 367, 2-(2-aminocyclobutyl)-3-bromo-5-chloro-N-(thiophen-2-ylmethyl)furo[3,2-b]pyridin-7-amine]	6.30 to 7.00	
N[C@@H]1CC[C@H]1c1oc2c(NCc3cccs3)cc(Cl)nc2c1Br (single isomer, unassigned) [Compound 290]	5.30 to 6.30	
N[C@H]1CC[C@@H]1c1oc2c(NCc3cccs3)cc(Cl)nc2c1Br (single isomer, unassigned) [Compound 291]	6.30 to 7.00	
N[C@H]1CC(F)(F)C[C@@H]1c1oc2c(NCc3cccs3)cc(Cl)nc2c1Br (single isomer, unassigned) [Compound 369]	5.00 to 5.30	
N[C@@H]1CC(F)(F)C[C@H]1c1oc2c(NCc3cccs3)cc(Cl)nc2c1Br (single isomer, unassigned) [Compound 388]	6.30 to 7.00	
C[C@H](F)[C@H](N)Cc1oc2c(NCc3cccs3)cc(C#N)nc2c1Cl [Compound 104, 2-[(2R,3S)-2-amino-3-fluorobutyl]-3-chloro-7-thenylamino-1-oxa-4-aza-5-indenecarbonitrile]	6.30 to 7.00	
N[C@H]1CCC[C@@H]1c1oc2c(NCc3cccs3)cc(Cl)nc2c1Br [Compound 170, 2-[(1S,2S)-2-aminocyclopentyl]-3-bromo-5-chloro-7-thenylamino-1-oxa-4-azaindene]	7.00 to 11.00	
N[C@@H]1CCC[C@H]1c1oc2c(NCc3cccs3)cc(Cl)nc2c1Br [Compound 172, 2-[(1R,2R)-2-aminocyclopentyl]-3-bromo-5-chloro-7-thenylamino-1-oxa-4-azaindene]	5.30 to 6.30	
N[C@H]1CCCC[C@@H]1c1oc2c(NCc3cccs3)cc(Cl)nc2c1Br [Compound 174, 2-[(1,2S)-2-aminocyclohexyl]-3-bromo-5-chloro-7-thenylamino-1-oxa-4-azaindene]	7.00 to 11.00	
N[C@@H]1CCCC[C@H]1c1oc2c(NCc3cccs3)cc(Cl)nc2c1Br [Compound 176, 2-[(1R,2R)-2-aminocyclohexyl]-3-bromo-5-chloro-7-thenylamino-1-oxa-4-azaindene]	5.30 to 6.30	
C#Cc1c(C[C@@H](N)[C@H](C)F)oc2c(NCc3cccs3)c(F)c(Cl)nc12 [Compound 278, 2-[(2R,3S)-2-amino-3-fluorobutyl]-5-chloro-3-ethynyl-6-fluoro-7-thenylamino-1-oxa-4-azaindene]	6.30 to 7.00	
C[C@H](N)Cc1oc2c(NCc3ccc(C#N)cc3)cc(Cl)nc2c1Br [Compound 339, p-({2-[(S)-2-aminopropyl]-3-bromo-5-chloro-1-oxa-4-aza-7-indenylamino}methyl)benzonitrile]		4.40 to 5.00
C[C@H](N)Cc1oc2c(NCc3ccc(F)cn3)cc(Cl)nc2c1Br [Compound 341, 2-[(S)-2-aminopropyl]-3-bromo-5-chloro-7-{[(5-fluoro-2-pyridyl)methyl]amino}-1-oxa-4-azaindene]		5.00 to 5.30
C[C@H](N)Cc1oc2c(NCc3ccncc3F)cc(Cl)nc2c1Br [Compound 342, 2-[(S)-2-aminopropyl]-3-bromo-5-chloro-7-{[(3-fluoro-4-pyridyl)methyl]amino}-1-oxa-4-azaindene]		6.30 to 7.00
COc1cc(CNc2cc(Cl)nc3c(Br)c(C[C@H](C)N)oc23)ccc1F [Compound 343, 2-[(S)-2-aminopropyl]-3-bromo-5-chloro-7-{[(4-fluoro-3-methoxyphenyl)methyl]amino}-1-oxa-4-azaindene]		5.30 to 6.30
O=C(O)c1oc2c(NCc3cccs3)cc(Cl)nc2c1Br [Compound 347, 3-bromo-5-chloro-7-thenylamino-1-oxa-4-aza-2-indenecarboxylic acid]		4.40 to 5.00

Compound	pIC50 [1]	pEC50 (ATXN3-HiBiT protein)
COc1cccc(CNc2cc(Cl)nc3c(Br)c(C[C@H](C)N)oc23)n1 [Compound 348, 2-[(S)-2-aminopropyl]-3-bromo-5-chloro-7-{[(6-methoxy-2-pyridyl)methyl]amino}-1-oxa-4-azaindene]		4.40 to 5.00
C[C@H](N)Cc1oc2c(NCc3ccccc3OC(F)(F)F)cc(Cl)nc2c1Br [Compound 349, 2-[(S)-2-aminopropyl]-3-bromo-5-chloro-7-{[(o-trifluoromethoxyphenyl)methyl]amino}-1-oxa-4-azaindene]		4.40 to 5.00
C[C@H](N)Cc1oc2c(NCc3ccc(F)c(F)c3F)cc(Cl)nc2c1Br [Compound 351, 2-[(S)-2-aminopropyl]-3-bromo-5-chloro-7-{[(2,3,4-trifluorophenyl)methyl]amino}-1-oxa-4-azaindene]		4.40 to 5.00
CC(O)c1oc2c(NCc3cccs3)cc(Cl)nc2c1Br (stereo not drawn) [Compound 355, 1-(3-bromo-5-chloro-7-((thiophen-2-ylmethyl)amino)furo[3,2-b]pyridin-2-yl)ethan-1-ol]		5.00 to 5.30
COC(C)c1oc2c(NCc3cccs3)cc(Cl)nc2c1Br (stereo not drawn) [Compound 356, 3-bromo-5-chloro-2-(1-methoxyethyl)-N-(thiophen-2-ylmethyl)furo[3,2-b]pyridin-7-amine]		4.40 to 5.00
C[C@H](N)Cc1oc2c(NCc3ccco3)cc(Cl)nc2c1C(=O)N(C)C [Compound 357, 2-[(2S)-2-aminopropyl]-5-chloro-7-[(furan-2-ylmethyl)amino]-N,N-dimethylfuro[3,2-b]pyridine-3-carboxamide]	4.40 to 5.00	
CNC(=O)c1c(C[C@H](C)N)oc2c(NCc3ccco3)cc(Cl)nc12 [Compound 358, 2-[(2S)-2-aminopropyl]-5-chloro-7-[(furan-2-ylmethyl)amino]-N-methylfuro[3,2-b]pyridine-3-carboxamide]	4.40 to 5.00	
COc1cccc(CNc2cc(Cl)nc3c(Br)c(C[C@H](C)N)oc23)c1F [Compound 359, 2-[(S)-2-aminopropyl]-3-bromo-5-chloro-7-{[(2-fluoro-3-methoxyphenyl)methyl]amino}-1-oxa-4-azaindene]	4.40 to 5.00	
COCc1oc2c(NCc3cccs3)cc(Cl)nc2c1Br [Compound 360, 3-bromo-5-chloro-2-(methoxymethyl)-N-(thiophen-2-ylmethyl)furo[3,2-b]pyridin-7-amine]	5.00 to 5.30	
COc1cc(CNc2cc(Cl)nc3c(Br)c(C[C@H](C)N)oc23)ccn1 [Compound 361, 2-[(S)-2-aminopropyl]-3-bromo-5-chloro-7-{[(2-methoxy-4-pyridyl)methyl]amino}-1-oxa-4-azaindene]	4.40 to 5.00	
COc1cccc(CNc2cc(Cl)nc3c(Br)c(C[C@H](C)N)oc23)c1 [Compound 362, 2-[(S)-2-aminopropyl]-3-bromo-5-chloro-7-{[(m-methoxyphenyl)methyl]amino}-1-oxa-4-azaindene]	5.00 to 5.30	
C[C@H](N)Cc1oc2c(NCc3ccco3)cc(Cl)nc2c1-c1nnco1 [Compound 364, 2-[(2S)-2-aminopropyl]-5-chloro-N-(furan-2-ylmethyl)-3-(1,3,4-oxadiazol-2-yl)furo[3,2-b]pyridin-7-amine]	5.30 to 6.30	
C[C@H](N)Cc1oc2c(NCc3ccco3)cc(Cl)nc2c1-c1ncc(C(N)=O)o1 [Compound 365, 2-{2-[(2S)-2-aminopropyl]-5-chloro-7-[(furan-2-ylmethyl)amino]furo[3,2-b]pyridin-3-yl}-1,3-oxazole-5-carboxamide]	4.40 to 5.00	
C[C@H](N)Cc1oc2c(NCc3ccco3)cc(Cl)nc2c1-c1ncc(C#N)o1 [Compound 366, 2-{2-[(2S)-2-aminopropyl]-5-chloro-7-[(furan-2-ylmethyl)amino]furo[3,2-b]pyridin-3-yl}-1,3-oxazole-5-carbonitrile]	4.40 to 5.00	
Clc1cc(NCc2cccs2)c2oc(OCC3CCC3)c(Br)c2n1 [Compound 368, 3-bromo-5-chloro-2-(cyclobutylmethoxy)-N-(thiophen-2-ylmethyl)furo[3,2-b]pyridin-7-amine]	5.30 to 6.30	
N[C@H]1COC[C@@H]1c1oc2c(NCc3cccs3)cc(Cl)nc2c1Br [Compound 373, 2-[(3R,4R)-4-aminotetrahydro-3-furyl]-3-bromo-5-chloro-7-thenylamino-1-oxa-4-azaindene]	6.30 to 7.00	
